Test results taken from patent publication US5622962A, “5α-reductase inhibitors” (priority 1995, dated 1997).

molecular target: T1, Type II 5α-Reductase from Human Prostate (Homo sapiens, UniProt P31213); assay: Human Type II 5α-reductase assay (conversion of [3H]-testosterone to 5α-reduced metabolites); type: biochemical; conditions: pH 5.5, 0.3 μM; sodium acetate pH 5.5, 25°, 30 min; compared to control reaction mixtures; read-out: percent inhibition of Type II AR
T1 construct: The same procedure as above was used for preparations using tissue from prostate surgery; from tissue; host or cells: human prostate tissue from surgery, homogenate, 100,000×g pellet
T1 sequence (P31213 1-254): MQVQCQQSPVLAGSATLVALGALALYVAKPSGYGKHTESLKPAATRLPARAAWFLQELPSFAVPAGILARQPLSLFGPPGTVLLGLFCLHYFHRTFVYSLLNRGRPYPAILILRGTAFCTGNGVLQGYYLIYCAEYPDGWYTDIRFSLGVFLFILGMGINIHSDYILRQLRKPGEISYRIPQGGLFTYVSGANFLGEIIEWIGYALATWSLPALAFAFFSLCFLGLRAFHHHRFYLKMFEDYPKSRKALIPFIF

inhibition at 0.3 µM [%]	SMILES
19	CN1C(=O)CC[C@]2(C)c3ccc(-c4cccc(Cl)c4)cc3CC[C@@H]12 [Example 63, (+)-(4aR)-(10bR)-4-methyl-8-(3-chlorophenyl)-10b-methyl-1,2,3,4,4a,5,6,10b-octahydrobenzo[f]quinolin-3-one]
40	CSc1ccccc1-c1ccc2c(c1)CC[C@H]1N(C)C(=O)CC[C@]21C [Example 127, (+)-(4aR)-(10bR)-4-methyl-8-(2-methylthiophenyl)-10b-methyl-1,2,3,4,4a,5,6,10b-octahydrobenzo[f]quinolin-3-one]
22	CN1C(=O)CC[C@]2(C)c3ccc(-c4cccc(N)c4)cc3CC[C@@H]12 [Example 90, (+)-(4aR)-(10bR)-4-methyl-8-(3-aminophenyl)-10b-methyl-1,2,3,4,4a,5,6,10b-octahydrobenzo[f]quinolin-3-one]
12	CN1C(=O)CC[C@]2(C)c3ccc(-c4ccc(F)cc4)cc3CC[C@@H]12 [Example 85, (+)-(4aR)-(10bR)-4-methyl-8-(4-fluorophenyl)-10b-methyl-1,2,3,4,4a,5,6,10b-octahydrobenzo[f]quinolin-3-one]
16	COc1ccc(-c2ccc3c(c2)CC[C@H]2N(C)C(=O)CC[C@]32C)cc1 [Example 47, (+)-(4aR)-(10bR)-4-methyl-8-(4-methoxyphenyl)-10b-methyl-1,2,3,4,4a,5,6,10b-octahydrobenzo[f]quinolin-3-one]
36	CN1C(=O)CC[C@]2(C)c3ccc(-c4ccc5c(c4)OCO5)cc3CC[C@@H]12 [Example 70, (+)-(4aR)-(10bR)-4-methyl-8-(3,4-methylenedioxyphenyl)-10b-methyl-1,2,3,4,4a,5,6,10b-octahydrobenzo[f]quinolin-3-one]
7	C[C@]12CCC(=O)N[C@@H]1CCc1cc(-c3nccs3)ccc12 [Example 198, (+)-(4aR)-(10bR)-8-(2-thiazolyl)-10b-methyl-1,2,3,4,4a,-5,6,10b-octahydrobenzo[f]quinolin-3-one]
20	CN1C(=O)CC[C@]2(C)c3ccc(-c4cccc(C=O)c4)cc3CC[C@@H]12 [Example 57, (+)-(4aR)-(10bR)-4-methyl-8-(3-formylphenyl)-10b-methyl-1,2,3,4,4a,5,6,10b-octahydrobenzo[f]quinolin-3-one]
37	CN1C(=O)CC[C@]2(C)c3ccc(/C=C/c4ccc5ccccc5n4)cc3CC[C@@H]12 [Example 283, (4aR)-(10bR)-4,10b-dimethyl-8-(2-[2-quinolinyl]ethenyl)-1,2,3,4,4a,5,6,10b-octahydrobenzo[f]quinolin-3-one]
18	CN1C(=O)CC[C@]2(C)c3ccc(NC(=O)c4cccc([N+](=O)[O-])c4)cc3CC[C@@H]12 [Example 268, (+)-(4aR)-(10bR)-4,10b-dimethyl-8-(3-nitrobenzoylamino)-1,2,3,4,4a,5,6,10b-octahydrobenzo[f]quinolin-3-one]
44	CN1C(=O)CC[C@]2(C)c3ccc(-c4ccc5c(c4)CCC5O)cc3CC[C@@H]12 (single isomer, unassigned; (+)) [Example 245]
30	C[C@]12CCC(=O)N[C@@H]1CCc1cc(-c3ccc([N+](=O)[O-])cn3)ccc12 [Example 199, (+)-(4aR)-(10bR)-8-(5-nitro-2-pyridinyl)-10b-methyl-1,2,3,4,4a,5,6,10b-octahydrobenzo[f]quinolin-3-one]

Continued, compound first:

SMILES	inhibition at 0.3 µM [%]
CN1C(=O)CC[C@]2(C)c3ccc(-c4ccc5cc(O)ccc5c4)cc3CC[C@@H]12 [Example 60, (+)-(4aR)-(10bR)-4-methyl-8-(2-[6-hydroxy]naphthyl)-10b-methyl-1,2,3,4,4a,5,6,10b-octahydrobenzo[f]quinolin-3-one]	42
CC(C)C(=O)c1ccc(-c2ccc3c(c2)CC[C@H]2N(C)C(=O)CC[C@]32C)cc1 [Example 122, (+)-(4aR)-(10bR)-4-methyl-8-(4-[isopropylcarbonyl]phenyl)-10b-methyl-1,2,3,4,4a,5,6,10b-octahydrobenzo[f]quinolin-3-one]	36
CN1C(=O)CC[C@]2(C)c3ccc(-c4cccc(NC(=O)c5ccccc5)c4)cc3CC[C@@H]12 [Example 273, (+)-(4aR)-(10bR)-4-methyl-8-(3-[benzoylamino]phenyl)-10b-methyl-1,2,3,4,4a,5,6,10b-octahydrobenzo[f]quinolin-3-one]	27
C[C@]12CCC(=O)N[C@@H]1CCc1cc(-c3cccc4ccccc34)ccc12 [Example 92, (+)-(4aR)-(10bR)-8-(1-naphthyl)-10b-methyl-1,2,3,4,4a,5,6,10b-octahydrobenzo[f]quinolin-3-one]	10
C[C@]12CCC(=O)N[C@@H]1CCc1cc(-c3cnc4ccccc4c3)ccc12 [Example 45, (+)-(4aR)-(10bR)-8-(3-quinolinyl)-10b-methyl-1,2,3,4,4a,-5,6,10b-octahydrobenzo[f]quinolin-3-one]	45
COc1ccc(-c2ccc3c(c2)CC[C@H]2N(C)C(=O)CC[C@]32C)cc1OC [Example 42, (+)-(4 aR)-(10bR)-4-methyl-8-(3,4-dimethoxyphenyl)-10b-methyl-1,2,3,4,4a,5,6,10b-octahydrobenzo[f]quinolin-3-one]	32
C[C@]12CCC(=O)N[C@@H]1CCc1cc(C(=O)Nc3ccccc3)ccc12 [Example 291, (+)-(4aR)-(10bR)-8-phenylcarboxamido-10b-methyl-1,2,3,4,4a,5,6,10b-octahydrobenzo[f]quinoline-3-one]	19
CN(C)c1ccc(-c2ccc3c(c2)CC[C@H]2N(C)C(=O)CC[C@]32C)cc1 [Example 59, (+)-(4aR)-(10bR)-4-methyl-8-(4-dimethylaminophenyl)-10b-methyl-1,2,3,4,4a,5,6,10b-octahydrobenzo[f]quinolin-3-one]	31
CN1C(=O)CC[C@]2(C)c3ccc(/C=C/c4cnc5ccccc5c4)cc3CC[C@@H]12 [Example 282, (4aR)-(10bR)-4,10b-dimethyl-8-(2-[3-quinolinyl]ethenyl)-1,2,3,4,4a,5,6,10b-octahydrobenzo[f]quinolin-3-one]	37
CN1C(=O)CC[C@]2(C)c3ccc(-c4ccc(OC(F)(F)F)cc4)cc3CC[C@@H]12 [Example 78, (+)-(4aR)-(10bR)-4-methyl-8-(4-trifluoromethoxyphenyl)-10b-methyl-1,2,3,4,4a,5,6,10b-octahydrobenzo[f]quinolin-3-one]	3
CCOc1ccc(-c2ccc(-c3ccc4c(c3)CC[C@H]3N(C)C(=O)CC[C@]43C)cc2)cc1 [Example 89, (+)-(4aR)-(10bR)-4-methyl-8-(4-[4-ethoxy]biphenyl)-10b-methyl-1,2,3,4,4a,5,6,10b-octahydrobenzo[f]quinolin-3-one]	15
CN1C(=O)CC[C@]2(C)c3ccc(-c4cccs4)cc3CC[C@@H]12 [Example 278, (4aR)-(10bR)-4,10b-dimethyl-8-(2-thiophenyl)-1,2,3,4,4a,5,6,10b-octahydrobenzo[f]quinolin-3-one]	28
COc1cccc(-c2ccc3c(c2)CC[C@H]2N(C)C(=O)CC[C@]32C)c1 [Example 48, (+)-(4aR)-(10bR)-4-methyl-8-(3-methoxyphenyl)-10b-methyl-1,2,3,4,4a,5,6,10b-octahydrobenzo[f]quinolin-3-one]	12
